How the values were obtained:
[1] = parameters: method as in Kusama et al. [1998]; details: binding to plasma proteins; ref Kusama et al. [1998]; cited from earlier work
[2] = Pharmacokinetics of VCM after intraduodenal administration to control and PN rats; details: for F (bioavailability): 20 mg/kg intraduodenal vs 5 mg/kg intravenous, dose-normalised AUC ratio; for ka (absorption rate constant) / CLD2/F / Cmax (maximum concentration) / Vc/F / Vp/F / t1/2α (distribution half-life) / t1/2β (elimination half-life) / CLtot/F: 20 mg/kg intraduodenal, two-compartment model with first-order absorption, plasma LC/MS/MS; for ka (absorption rate constant): pylorus ligated
Protocol: (§1) Briefly, 3 days before the start of PN administration, cardiac catheterization was performed via the right jugular vein with a polyurethane catheter (0.6-mm ID, 0.9-mm OD, Primetech Co., Tokyo, Japan) in rats anesthetized with sodium pentobarbital, and given ampicillin for prevention of infection and local bupivacaine for pain relief. The cannulated rats were housed individually in cages with free access to food and water, and received saline at a rate of 0.1 mL/h for 3 days via the catheter with a syringe pump (ISIS Co., Ltd., Osaka, Japan), and daily ampicillin (2 mg/kg, 2-min infusion) for recovery from surgery. For PN administration, infusion of PN solution was started at a rate of 1.25 mL/h for 2 days under fasting and water-deprived conditions; PN solution consisting of glucose, amino acids, electrolytes, and vitamins (approximately 0.97 kcal/mL) was prepared by mixing PNTWIN No. 3 with VITAJECT (Fukushima et al. [2015]). Subsequently, PN administration was performed at a rate of 2.5 mL/h (viz., 60 mL/day, 58 kcal/day) for 7 days; likewise, the sham operated rats (control rats) underwent the same regimen with saline and allowed free access to food throughout the treatment.
(§2) Blood samples were taken 5, 15, 30, 45, 60, 90, 120, 180, 240, and 360 min after administration, and were centrifuged at 12,000 rpm for 15 min to collect the plasma fraction. In the intraduodenal administration study, the abdominal cavity was opened in anesthetized rats and the stomach was exposed. […] After administration, the incision was closed with a tissue adhesive and the pylorus was ligated. Blood samples were taken 5, 15, 30, 60, 90, 120, 180, 240, 300, and 360 min after administration, and plasma samples were collected by centrifugation. The collected plasma samples in both studies were immediately frozen at −80 °C until analysis.
(§3) After vortexing and centrifugation at 12,000 rpm for 15 min, the supernatant was diluted in 340 µL of distilled water and was passed through a filter, and 10 µL of the filtrate was injected into a Quattro Ultima LC/MS/MS system with a 2690 Separation Module (Waters Co, MA, UK). […] Mass spectrometry was conducted with electrospray ionization in positive mode (ESI+) under the following conditions: source temperature, 130 °C; cone voltage, 35 V; capillary voltage, 4.0 kV.
(§4) All pharmacokinetic analyses were performed using WinNonlin® Version 6.3 (Pharsight, Mountain View, CA). The structural parameters, including the absorption rate constant (ka), distribution volume of the central compartment (Vc), distribution volume of the peripheral compartment (Vp), total body clearance (CLtot), and distribution clearance (CLD2), and the secondary parameters including the maximum concentration (Cmax), time to maximum concentration (Tmax), distribution half-life (t1/2α), elimination half-life (t1/2β), and the area under the plasma concentration–time curve (AUC) were calculated. The bioavailability (F) was calculated using the following equation: F=AUCintraduodenal/Doseintraduodenal/AUCintravenous/Doseintravenous, where Dose represents the administered dosage.
(§5) All values are represented by the mean ± standard error (SE). Statistical differences of the means were assumed to be significant when p < 0.05 by the Mann–Whitney U test.

[3] = Pharmacokinetics of VCM after intravenous administration to control and PN rats; details: 5 mg/kg intravenous bolus, two-compartment model, plasma LC/MS/MS
Protocol: as §1, §2, §3, §4, §5

[4] = PN rats (parenteral nutrition for 9 days), mean of n = 4, p<0.05 vs control
[5] = PN rats (parenteral nutrition for 9 days), mean of n = 4

CN[C@H](CC(C)C)C(=O)N[C@H]1C(=O)N[C@@H](CC(N)=O)C(=O)N[C@H]2C(=O)N[C@H]3C(=O)N[C@H](C(=O)N[C@H](C(=O)O)c4cc(O)cc(O)c4-c4cc3ccc4O)[C@H](O)c3ccc(c(Cl)c3)Oc3cc2cc(c3O[C@@H]2O[C@H](CO)[C@@H](O)[C@H](O)[C@H]2O[C@H]2C[C@](C)(N)[C@H](O)[C@H](C)O2)Oc2ccc(cc2Cl)[C@H]1O [VCM, vancomycin]
protein binding rate [1]: approximately 47%
F (bioavailability) [2, 4]: 1.295%
ka (absorption rate constant) [2, 5]: 0.256 min⁻¹
CLD2/F [2, 5]: 1360 mL/min/kg
Cmax (maximum concentration) [2, 5]: 267 ng/mL
Vc/F [2, 5]: 89 L/kg
Vp/F [2, 5]: 29 L/kg
t1/2α (distribution half-life) [2, 5]: 26.2 min
t1/2β (elimination half-life) [2, 5]: 150 min
CLtot/F [2, 4]: 590 mL/min/kg
ka (absorption rate constant) ([2]; control rats (sham, saline), mean of n = 4): 0.214 min⁻¹
F (bioavailability) ([2]; control rats, mean of n = 4): 0.504%
CLD2/F ([2]; control rats, mean of n = 4): 2050 mL/min/kg
CLtot/F ([2]; control rats, mean of n = 4): 1340 mL/min/kg
Cmax (maximum concentration) ([2]; control rats, mean of n = 4): 111 ng/mL
Vc/F ([2]; control rats, mean of n = 4): 158 L/kg
Vp/F ([2]; control rats, mean of n = 4): 107 L/kg
t1/2α (distribution half-life) ([2]; control rats, mean of n = 4): 31.4 min
t1/2β (elimination half-life) ([2]; control rats, mean of n = 4): 174 min
AUC (area under the plasma concentration vs time curve) [3, 5]: 807 µg·min/mL
CLD2 (distribution clearance) [3, 5]: 4.23 mL/min/kg
CLtot (total body clearance) [3, 5]: 6.22 mL/min/kg
Vc (distribution volume of the central compartment) [3, 5]: 0.234 L/kg
Vp (distribution volume of the peripheral compartment) [3, 5]: 0.223 L/kg
t1/2α (distribution half-life) [3, 5]: 13.72 min
Vc (distribution volume of the central compartment) ([3]; control rats (sham, saline), male Wistar, mean of n = 4 (SE in own column)): 0.214 L/kg
AUC (area under the plasma concentration vs time curve) ([3]; control rats, mean of n = 4): 788 µg·min/mL
CLD2 (distribution clearance) ([3]; control rats, mean of n = 4): 6.26 mL/min/kg
CLtot (total body clearance) ([3]; control rats, mean of n = 4): 6.44 mL/min/kg
Vp (distribution volume of the peripheral compartment) ([3]; control rats, mean of n = 4): 0.283 L/kg
t1/2α (distribution half-life) ([3]; control rats, mean of n = 4): 9.72 min

Reference: article PMC4546118 (SpringerPlus, 2015)
